Read-outs that look alike come from different tables or passages of the source.
Tests used:
[1] = system: Baf3-CCDC6-RET WT cells; assay: Proliferation assay (CellTiter-Glo); type: cell-based, murine; settings: Mus musculus, read-out: Cellular Viability IC50
Description: (§1) The cell lines HEK293T, Baf3, TT cell and NIH-3T3 were obtained from the Cell Resource Center, Peking Union Medical College (PCRC). HEK293T and NIH-3T3 were maintained in DMEM high glucose medium (#C3113-0500, Vivacell) supplemented with 10 % FBS (#10500064, Gibco) and 1 % Penicillin-Streptomycin (#15140122, Gibco). The murine Pro‐B cell line Baf3 was cultured in RPMI 1640 medium (#C3010, Vivacell) supplemented with 10 % FBS, 1 % Penicillin-Streptomycin and 1 ng/mL recombinant murine interleukin-3 (#213-13, PeproTech). All stably transformed BaF3 cells were cultured in RPMI 1640 without IL‐3. The TT MTC cell was grown in Ham's F-12K medium (#21127022, Gibco) supplemented with 10 % FBS and 1 % Penicillin-Streptomycin. Cells were cultured at 37 °C under 5 % CO2 and high humidity conditions.
(§2) KIF5B-RET, CCDC6-RET and mutations were cloned into pCDHL vector and were verified by sequencing. Reah RET expression vectors were separately co‐transfected with psPAX2 and pMD2.G packaging plasmids into 60-70% confluent HEK 293T cells maintained in 2 mL of culture medium in six‐well plates using Polyethyleneimine (PEI) transfection grade. Virus containing media was harvested after 48 h and filtered with 0.45 μm membrane and stored at -80 °C prior to infection. For infection of Ba/F3 cells, 1 mL of viral supernatant and 8 μg/mL polybrene were added to 5 million cells per well in six‐well plates. Infected cells were selected with the addition of 1 μg/mL puromycin for 2 weeks in RPMI-1640/ 10% FBS/ 1 ng/mL IL-3 medium. Subsquently, puromycin-resistant cells were cultured in IL-3-free medium for 1 week and RET fusion proteins were confirmed by immunoblot analysis.
(§3) Cell viability was assessed by luminescence using CellTiter-Glo 2.0 assay (Promega). IC50 curve fitting was performed using GraphPad Prism 9.0.

[2] = system: Baf3-KIF5B-RET V804M cells; assay: Proliferation assay (CellTiter-Glo); type: cell-based, murine; settings: Mus musculus, read-out: Cellular Viability IC50
Description: as §1, §2, §3

[3] = system: Baf3-KIF5B-RET WT cells; assay: Proliferation assay (CellTiter-Glo); type: cell-based, murine; settings: Mus musculus, read-out: Cellular Viability IC50
Description: as §1, §2, §3

[4] = system: Baf3-CCDC6-RET V804M cells; assay: Proliferation assay (CellTiter-Glo); type: cell-based, murine; settings: Mus musculus, read-out: Cellular Viability IC50
Description: as §1, §2, §3

[5] = system: Baf3-CCDC6-RET M918T cells; assay: Proliferation assay (CellTiter-Glo); type: cell-based, murine; settings: Mus musculus, read-out: Cellular Viability IC50
Description: as §1, §2, §3

[6] = system: Baf3-KIF5B-RET M918T cells; assay: Proliferation assay (CellTiter-Glo); type: cell-based, murine; settings: Mus musculus, read-out: Cellular Viability IC50
Description: as §1, §2, §3

[7] = Tissue distribution in rats; type: in vivo; settings: both sexes, rat, po, 20 mg/kg gavage
Description: The exposures in body fat, small intestine, heart, uterus, skeletal muscle, testis and brain were lower than in plasma and the rest were higher than in plasma. The highest exposures were found in the liver, stomach and lung, which were 358, 202 and 173% of plasma, respectively. […] There was no significant sex difference in the exposure of SY-5007 in rat tissues.

[8] = system: preclinical animals; assay: Preclinical animal long term (repeat-dose) toxicity tests, species not stated; type: in vivo
[9] = system: rat bone marrow cells; assay: In vivo bone marrow micronucleus test
Description: The bone marrow cell micronucleus test was positive in male rats at ≥100 mg/kg/day and in female rats at ≥300 mg/kg/day.

[10] = target: T1, CYP2C8 (Homo sapiens, UniProt P10632); assay: CYP inhibition in human liver microsomes; type: in vitro ADME; settings: 0.5-25 μM
T1 construct: substrates of different CYP450 enzymes in mixed human liver microsomes; from tissue; host or cells: mixed human liver microsomes

[11] = system: SD rats; assay: Acute toxicity, single oral gavage; type: in vivo; settings: acute toxicity study in SD rats
[12] = Acute toxicity, single oral gavage; type: in vivo; settings: SD, rat, in vivo, oral, read-out: MTD, single dose
[13] = target: T2, CYP2C19 (Homo sapiens, UniProt P33261); assay: CYP inhibition in human liver microsomes; type: in vitro ADME; settings: 0.5-25 μM
T2 construct: substrates of different CYP450 enzymes in mixed human liver microsomes; from tissue; host or cells: mixed human liver microsomes

[14] = system: Baf3-CCDC6-RET^V804M xenograft; assay: Tumor xenograft model; type: in vivo, BALB/c nude mice; settings: 9 days
Description: (§4) All procedures relating to animal handling, care, and treatment were performed according to the Beijing Laboratory Animal Management Regulations. 6-week-old male BALB/c nude mice were inoculated subcutaneously into the flank with Baf3-CCDC6-RET^WT (5*10^6 cells/ 0.1 mL/ each), Baf3-CCDC6-RET^M918T (5*10^6 cells/0.1 mL/each), Baf3-CCDC6-RET^V804M (5*10^6 cells/ 0.1 mL/ each), or HEK293T-KIF5B-RET^V804M (5*10^6 cells/ 0.1 mL/ each). Mice were randomized by tumor size into groups of 10 to 12 when tumor volume reached approximately 100-150 mm^3. […] Tumor size and body weight were measured two times each week, and tumor volume was calculated with the following formula: [length × (width)^2]/ 2. Statistical significance was calculated by using two-way ANOVA test to assess the difference in tumor volumes between the control (vehicle-treated) and treatment groups.

[15] = system: HEK293T-KIF5B-RET^V804M xenograft; assay: Tumor xenograft model; type: in vivo, BALB/c nude mice; settings: 14 days
Description: as §4

[16] = system: Baf3-CCDC6-RET^WT xenograft; assay: Tumor xenograft model; type: in vivo, BALB/c nude mice
Description: as §4

[17] = system: Baf3-CCDC6-RET^M918T xenograft; assay: Tumor xenograft model; type: in vivo, BALB/c nude mice; settings: 9 days
Description: as §4

[18] = high-dose study, 10 mg/kg (so in the source)

T1 sequence (P10632 whole entry): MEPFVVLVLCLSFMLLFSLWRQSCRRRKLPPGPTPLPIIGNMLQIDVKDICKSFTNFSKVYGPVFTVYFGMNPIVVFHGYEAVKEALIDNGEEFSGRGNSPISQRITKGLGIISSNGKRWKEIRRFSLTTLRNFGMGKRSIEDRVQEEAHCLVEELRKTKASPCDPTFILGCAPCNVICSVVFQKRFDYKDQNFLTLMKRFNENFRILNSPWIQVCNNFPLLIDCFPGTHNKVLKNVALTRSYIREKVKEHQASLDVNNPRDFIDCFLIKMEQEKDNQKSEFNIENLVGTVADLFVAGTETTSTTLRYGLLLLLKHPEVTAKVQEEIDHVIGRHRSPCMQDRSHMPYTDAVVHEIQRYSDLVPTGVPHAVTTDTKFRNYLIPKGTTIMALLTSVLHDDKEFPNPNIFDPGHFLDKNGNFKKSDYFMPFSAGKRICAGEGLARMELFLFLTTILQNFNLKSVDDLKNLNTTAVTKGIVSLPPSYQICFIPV
T2 sequence (P33261 whole entry): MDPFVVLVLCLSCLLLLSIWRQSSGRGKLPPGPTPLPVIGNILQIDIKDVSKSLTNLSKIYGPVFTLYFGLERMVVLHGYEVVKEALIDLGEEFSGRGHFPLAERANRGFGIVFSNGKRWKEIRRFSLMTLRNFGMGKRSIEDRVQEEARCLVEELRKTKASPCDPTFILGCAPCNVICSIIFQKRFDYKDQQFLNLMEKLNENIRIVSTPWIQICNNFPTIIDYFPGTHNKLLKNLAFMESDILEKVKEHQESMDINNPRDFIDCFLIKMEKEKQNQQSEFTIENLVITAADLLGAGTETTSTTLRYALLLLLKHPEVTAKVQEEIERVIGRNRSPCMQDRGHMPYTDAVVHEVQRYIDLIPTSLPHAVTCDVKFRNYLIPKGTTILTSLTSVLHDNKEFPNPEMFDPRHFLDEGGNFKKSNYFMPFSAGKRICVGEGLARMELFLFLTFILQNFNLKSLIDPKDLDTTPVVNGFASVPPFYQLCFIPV

## COc1ccc(CN2C3CC2CN(c2ccc(-c4cc(N5CC(C)(O)C5)cn5ncc(C#N)c45)cn2)C3)cn1 [SY-5007, 6-(3-hydroxy-3-methylazetidin-1-yl)-4-(6-(6-((6-methoxypyridin-3-yl)methyl)-3,6-diazabicyclo[3.1.1]heptan-3-yl)pyridin-3-yl)pyrazolo[1,5-a]pyridine-3-carbonitrile]
[1]
  IC50: 10.2 nM
[2]
  IC50: 45.3 nM
[3]
  IC50: 9.65 nM
[4]
  IC50: 27.1 nM
[5]
  IC50: 5.44 nM
[6]
  IC50: 13.6 nM
[7]; brain, read-out: Brain exposure (AUC0~24h)
  Kp: 0.00195
[7]; liver, read-out: Liver exposure (AUC0~24h)
  Kp: 3.58
[7]; lung, read-out: Lung exposure (AUC0~24h)
  Kp: 1.73
[7]; stomach, read-out: Stomach exposure (AUC0~24h)
  Kp: 2.02
[8]; preclinical animal long term toxicity tests
  Liver and gallbladder toxicity: ? Provision is made for the toxicity to the liver and gallbladder found in preclinical animal long term toxicity tests, and for adverse events associated with drugs with a similar mechanism of action to this product.
[8]; preclinical long toxicity experiments
  Reproductive toxicity (reproductive tissue weight): ? Preclinical long toxicity experiments observed a weight reduction in reproductive tissue, so relevant regulations are made.
[9]; female rats
  Dose at which micronucleus test positive: ≥ 300 mg/kg/day
[9]; male rats
  Dose at which micronucleus test positive: ≥ 100 mg/kg/day
[10]
  IC50: 9750 nM
[11]
  Kidney: urea: elevated urea
[12]; female, females
  MTD: 500 mg/kg
[12]; male, males
  MTD: 250 mg/kg
[13]
  IC50: > 25000 nM
[14]; 10 mg/kg oral
  TGI: 35.4%
[14]; 20 mg/kg oral
  TGI: 85.3%
[14]; 40 mg/kg oral
  TGI: 109%
[15]; 10 mg/kg twice daily
  TGI: 40.7%
[15]; 20 mg/kg twice daily
  TGI: 70.3%
[15]; 40 mg/kg twice daily
  TGI: 94.1%
[16]; 3 mg/kg twice daily, 13 days
  TGI: 59.2%
[16]; 6 mg/kg twice daily, 13 days
  TGI: 80.1%
[16]; 12 mg/kg twice daily, 13 days
  TGI: 93.5%
[16]; [18]
  TGI: 112%
  Tumor regression rate (REG): 97.3%
[16]; high-dose study, 20 mg/kg
  TGI: 107%
  Tumor regression rate (REG): 57.7%
[16]; high-dose study, 40 mg/kg (so in the source)
  Tumor regression rate (REG): 0%
[17]; 10 mg/kg oral
  TGI: 12.4%
[17]; 20 mg/kg oral
  TGI: 40.9%
[17]; 40 mg/kg oral
  TGI: 93.0%

Source: publication PMC11532403 (Signal Transduction and Targeted Therapy, 2024)
